Laboratory results reported in patent publication US20030134353A1, “Recombinant dimorphic fungal cell” (Bioteknologisk Institut, priority 2001, published 2003).

Experiments:
M. circinelloides = details: van Heeswijck et al., 1988; acid pH (3.2 or 4.5); cited from earlier work
pkaR expression = experiment: Northern blot analysis of pkaR expression during aerobic growth after dbcAMP addition; assay type: cell-based, M. circinelloides; details: for Total Counts (pkaR mRNA, background subtracted): aerobic growth
Experimental: M. circinelloides syn. racemosus R7B (ATCC 90680), a leucine auxotrophic strain of ATCC1216b, was used as a recipient for transformation experiments and for expression studies. Cultures were grown at 28° C. in either YPG (Bartnicki-Garcia and Nickerson, 1962), YNB (Lasker and Borgia, 1980), Vogel's medium supplemented with 1.5 g glutamic acid per litre (Hoekstra, 1996) or SIV medium with 1.5 g glutamic acid per litre in place of L-aspargine (Eslava and Alvarez, 1996). Vogel's and SIV media were supplemented with 2 g casamino acids (Difco, Detroit, Mich., USA) per litre. All media were supplemented with 1 mg/L niacin amide and 1 mg/L thiamine chloride. When appropriate, 20 mg/L leucine was added to allow for the growth of strain R7B. For the analysis of pkaR expression, 5 mM dbcAMP (Sigma) was added to aerobic growing cultures during exponential growth. The BBL GasPak system (Becton Dickinson, Sparks, Md., USA) was used for anaerobic incubation of strains on solid medium. E. coli DH5α was used for DNA manipulations.
RNA isolation was carried out using a FastRNA kit (BIO101 Inc., CA, USA) and extraction with acid Phenol:chloroform (Sigma). For Northern blot analysis, total RNA was loaded onto formaldehyde containing agarose gel, subjected to electrophoresis, transferred to GeneScreen membrane (Du Pont) and hybridised as described (Arnau et al., 1996). Expression levels were meassured using a Cyclone Storage Phosphor System (Packard) and the OptiQuant image analysis software. A linear dynamic range of 5 orders of magnitude with only a 5% standard deviation is possible with the above apparatus. Dilution series of the RNA preparations (typically 20, 10 and 5 μg total RNA per sample) were used to estimate induction levels. Primer extension was carried out using a radioactively end-labelled primer; complementary to position 98-78 downstream of the pkaR ATG start codon. A sequence ladder was obtained using the same primer and pEUKA4-pkaR DNA as template using the Thermo Sequenase Radiolabeled Terminator Cycle Sequencing Kit (USB-Amersham). Probe labelling was performed using Ready-To-Go DNA Labelling Beads (Amersham Pharmacia Biotech). Unincorporated nucleotides were removed using a NICK column (Pharmacia).
In a complementary study, the expression of pkaR was followed during aerobic (filamentous) growth before and after the addition of dbcAMP. This cAMP analogue is membrane permeable and its addition results in PKA activation.

[1] = tested on: Mucor circinelloides strain R7B; experiment: Screening of antibiotic sensitivity on YNB agar at pH 6.0; assay type: cell-based; details: YNB agar pH 6.0, 4 days at 28° C.
Experimental: Spores of Mucor circinelloides strain R7B were plated on to YNB agar pH 6.0 supplemented with leucine (upper left plate in all panels) or the same medium supplemented with 50, 100 or 250 μg/ml of the antibiotic (geneticin, kanamycin, hygromycin B or neomycin) as indicated in each panel. After 4 days at 28° C., plates were examined and photographed.
However, the conditions used for the above screening—especially the acid pH used (3.2 or 4.5)—may result in the inactivation of the antibiotic. Therefore, we performed an initial screening of antibiotic sensitivity using pH 6.0. Under these conditions, M. circinelloides is sensitive to all four antibiotic tested.

In the case of `CCCCNC(=O)n1c(NC(=O)OC)nc2ccccc21` [benomyl], the “Sensitivity of M. circinelloides to antibiotic as reported” value (from here on “Sensitivity of M. circinelloides”) (M. circinelloides) is listed as “insensitive”.
In the case of `CCCC(=O)Nc1ncnc2c1ncn2[C@@H]1O[C@@H]2COP(=O)(O)O[C@H]2[C@H]1OC(=O)CCC` [dbcAMP], the “Total Counts (pkaR mRNA, background subtracted)” value (“Total Counts” for short) (pkaR expression; 15 min after addition of 5 mM dbcAMP) is reported as 951, the “Total Counts” value (pkaR expression; 30 min after addition of 5 mM dbcAMP) is reported as 1728 and the “Total Counts” value (pkaR expression; 60 min after addition of 5 mM dbcAMP) is reported as 2235. The “Total Counts” value (pkaR expression; 120 min after addition of 5 mM dbcAMP) was 2392, the “Total Counts” value (pkaR expression; 180 min after addition of 5 mM dbcAMP) was 2966 and the “Induction of pkaR expression compared to the level before dbcAMP addition” value (pkaR expression; after three hours) was “sevenfold”.
In the case of `CN[C@H]1C[C@@H](N)[C@H](O)[C@@H](O[C@@H]2O[C@H](CO)[C@H](O)[C@@H]3OC4(O[C@H]23)O[C@H]([C@@H](N)CO)[C@H](O)[C@H](O)[C@H]4O)[C@@H]1O` (some centres unmarked) [hygromycin B], the “Growth of M. circinelloides on antibiotic-supplemented plates” value ([1]; 50 μg/ml antibiotic) is reported as “tiny colonies” and the “Growth of M. circinelloides on antibiotic-supplemented plates” value ([1]; 100 μg/ml antibiotic) is reported as “no growth”.
For `CC[C@H]1/C=C/C=C/C[C@@H](C)[C@H](O)[C@@](C)(O)C(=O)[C@@H](C)[C@H](O)[C@@H](C)C(=O)[C@@H](C)[C@H](O)[C@@H](C)/C=C/C(=O)O[C@@H]2[C@H](C)[C@H](CC1)O[C@]1(CC[C@H](C)[C@H](C[C@@H](C)O)O1)[C@H]2C` [oligomycin], the “Sensitivity of M. circinelloides” value (M. circinelloides) is given as “insensitive”.
For neomycin, the “Sensitivity of M. circinelloides” value (M. circinelloides) is given as “insensitive”.
